In US8716436B2 (priority 2010, dated 2014):
In brackets after ≈: the same amount, converted by molar mass. Read-outs that look alike come from different tables or passages of the source. Where a SMILES comes first, the peptide text is derived from it.

Experiments:
[1] = target: T1, cloned human mu opioid receptor (Homo sapiens, UniProt P35372); experiment: biochemical; assay type: biochemical
T1 construct: expressed in transfected cells

[2] = target: T2, cloned human delta opioid receptor (Homo sapiens, UniProt P41143); experiment: biochemical
T2 construct: expressed in transfected cells
T2 sequence (P41143 whole entry): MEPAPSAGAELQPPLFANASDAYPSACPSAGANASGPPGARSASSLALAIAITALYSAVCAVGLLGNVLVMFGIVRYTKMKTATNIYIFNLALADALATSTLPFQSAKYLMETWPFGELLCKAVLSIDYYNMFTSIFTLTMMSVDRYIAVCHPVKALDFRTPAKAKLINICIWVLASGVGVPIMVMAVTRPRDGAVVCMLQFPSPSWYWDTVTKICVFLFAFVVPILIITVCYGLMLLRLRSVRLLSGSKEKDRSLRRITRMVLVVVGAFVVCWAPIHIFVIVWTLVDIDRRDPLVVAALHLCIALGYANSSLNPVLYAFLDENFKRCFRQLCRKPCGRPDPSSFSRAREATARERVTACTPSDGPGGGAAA

[3] = target: T2, cloned human delta opioid receptor; experiment: 35S-GTPγS functional assay, delta antagonism against ED80 dose of SNC80; assay type: biochemical; settings: for Delta Antagonist efficacy: against ED80 dose of SNC80
[4] = Tail-flick (TF) antinociception after i.v. administration; assay type: in vivo; settings: rat; for Antinociception (tail-flick): i.v., 5.6 mg/kg
[5] = target: human delta opioid receptor (Homo sapiens, UniProt P41143); experiment: biochemical; assay type: binding
human delta opioid receptor, sequence (P41143 whole entry): as above

[6] = Solubility; assay type: physicochemical
Method: The solubility of the peptides of Formula I (e.g., in saline or physiologic buffer) typically is enhanced relative to the prior art tetrapeptide analogs of the endomorphins Addition of a hydrophilic amino acid and amidated C-terminus to the relatively hydrophobic tetrapeptide sequences Tyr-cyclo[D-Lys-Trp-Phe] (SEQ ID NO:10) and Tyr-cyclo[D-Lys-Phe-Phe] […] For example, Compound 1 was soluble in water, saline and 20% PEG/saline at about 43, 21 and 90 mg/mL, respectively, compared to less than about 2 mg/mL for the previously described compounds. While increases in solubility are associated with improved pharmaceutical delivery properties, higher solubility is also often associated with reduced functional activity (e.g., receptor binding) that may depend on lipophilicity.

[7] = target: T3, human mu opioid receptor (Homo sapiens, UniProt P35372); experiment: biochemical; assay type: binding
T3 construct: expressed in transfected cells; host or cells: CHO cells
T3 sequence (P35372 whole entry): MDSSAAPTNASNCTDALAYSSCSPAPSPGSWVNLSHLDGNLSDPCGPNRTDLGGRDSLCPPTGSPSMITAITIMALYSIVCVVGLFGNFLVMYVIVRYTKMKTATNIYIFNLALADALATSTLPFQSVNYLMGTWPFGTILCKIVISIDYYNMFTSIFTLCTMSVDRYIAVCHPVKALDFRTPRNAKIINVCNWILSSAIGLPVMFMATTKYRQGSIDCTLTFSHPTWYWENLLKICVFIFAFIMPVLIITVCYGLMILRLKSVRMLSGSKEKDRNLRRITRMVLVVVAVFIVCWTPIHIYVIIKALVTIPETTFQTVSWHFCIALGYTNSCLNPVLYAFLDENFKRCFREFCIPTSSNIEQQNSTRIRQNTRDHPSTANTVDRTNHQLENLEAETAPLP

[8] = tested on: glia; experiment: Glial activation (GFAP and phospho-p38 staining) after 1 week of treatment; settings: rat, after 1 week intrathecal treatment
[9] = Spared nerve injury (SNI) neuropathic pain, Randall-Selitto paw pressure; assay type: in vivo; settings: rat SNI; for Reversal time of hyperalgesia (significantly above vehicle): intrathecal cumulative doses
[10] = Conditioned place preference (CPP); settings: rat, i.v., doses producing maximal antinociception
[11] = Rotorod test of motor coordination; settings: rat, cumulative i.v. doses
[12] = Morris Water Maze (spatial memory); settings: rat, after 4 days of training
[13] = Tolerance: intrathecal cumulative dose-response in tail-flick test before and after 1 week osmotic minipump; assay type: in vivo; settings: rat; for ED50 antinociception on Day 7 after minipump implantation: morphine 2 μg/hr or analog 0.056 μg/hr for about 7 days; for ED50 antinociception in opioid naïve animals: before minipump
[14] = rat
[15] = target: cloned human kappa opioid receptor (Homo sapiens, UniProt P41145); experiment: biochemical
cloned human kappa opioid receptor, sequence (P41145 whole entry): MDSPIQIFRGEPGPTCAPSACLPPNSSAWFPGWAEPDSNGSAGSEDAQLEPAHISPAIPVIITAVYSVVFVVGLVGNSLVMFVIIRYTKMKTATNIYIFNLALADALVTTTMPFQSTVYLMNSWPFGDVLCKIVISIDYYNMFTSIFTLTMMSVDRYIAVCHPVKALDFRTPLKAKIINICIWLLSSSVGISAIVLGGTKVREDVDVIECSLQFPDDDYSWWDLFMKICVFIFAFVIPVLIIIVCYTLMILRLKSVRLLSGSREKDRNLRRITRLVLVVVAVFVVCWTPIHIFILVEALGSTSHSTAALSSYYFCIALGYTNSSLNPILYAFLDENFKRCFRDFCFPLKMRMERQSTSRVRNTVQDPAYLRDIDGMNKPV

[16] = target: human kappa opioid receptor (Homo sapiens, UniProt P41145); experiment: biochemical; assay type: binding
human kappa opioid receptor, sequence (P41145 whole entry): as above

T1 sequence (P35372 whole entry): as the sequence (P35372 whole entry) above

With `NC(=O)[C@@H]1CCC(=O)NCCCC[C@@H](NC(=O)[C@@H](N)Cc2ccc(O)cc2)C(=O)N[C@@H](Cc2c[nH]c3ccccc23)C(=O)N[C@@H](Cc2ccccc2)C(=O)N1` [Compound 1, Tyr-c[D-Lys-Trp-Phe-Glu]-NH2] the “Agonist EC50 mu” value [1] was “significantly greater potency than the reference compound, DAMGO”, the “Agonist efficacy at the mu receptor” value [1] was “full efficacy agonist” and the EC50 [1] was 0.15 nM. For the same compound, the EC50 [2] was over 100000 nM, the IC50 [3] was 105 nM and the “Delta Antagonist efficacy” value [3] was “full efficacy delta antagonism”. For the same compound, the “Delta Antagonist efficacy” value ([3]; listed as Comp. 1) was 93, the “Antinociception (TF) relative to morphine” value ([4]; cumulative doses, about 140 to 180 minutes after injection) was “greater antinociception” and the “Antinociception (tail-flick)” value [4] was “antinociception similar to the 10 mg dose of morphine”. For the same compound, the Ki [5] was 132 nM, the solubility ([6]; 20% PEG/saline, read-out: Solubility in 20% PEG/saline) was about 90 mg/mL (≈ 120 mM) and the solubility ([6]; saline, read-out: Solubility in saline) was about 21 mg/mL (≈ 27.9 mM). For the same compound, the solubility ([6]; water, read-out: Solubility in water) was about 43 mg/mL (≈ 57.1 mM), the Ki [7] was 0.49 nM and the “Glial activation (integrated density of GFAP and pp38 staining)” value (“Glial activation” below) [8] was “activation was not significantly different from vehicle”. The “Time at which scores were significantly above those of morphine” value ([9]; intrathecal) was 155 to 215 min.
For `NC(=O)[C@@H]1CCCCNC(=O)CC[C@@H](NC(=O)[C@@H](N)Cc2ccc(O)cc2)C(=O)N[C@@H](Cc2ccccc2)C(=O)N[C@@H](Cc2ccccc2)C(=O)N1` [Compound 2, Tyr-c[D-Glu-Phe-Phe-Lys]-NH2], the EC50 [1] was 0.99 nM, the “Conditioned place preference (time spent on the drug side)” value (from here on “Conditioned place preference”) [10] was “no significant CPP” and the EC50 [2] was over 100000 nM. For the same compound, the IC50 [3] was 2750 nM, the “Delta Antagonist efficacy” value [3] was 51 and the “Motor impairment (rotorod)” value [11] was “significantly less than that of morphine”. For the same compound, the “Antinociception (TF latency) relative to morphine” value ([4]; cumulative i.v. doses, at 135 and 155 minutes) was “significantly longer antinociception”, the “Antinociception (tail-flick)” value [4] was “antinociception similar to the 10 mg dose of morphine” and the Ki [5] was 69 nM. For the same compound, the “Impairment of spatial memory (latency to and distance from platform)” value [12] was “did not produce significant impairment”, the Ki [7] was 0.73 nM and the “Glial activation” value [8] was “activation was not significantly different from vehicle”. For the same compound, the “Shift in ED50 (tolerance)” value ([13]; after 1 week minipump) was “about 8.5 fold”, the “ED50 antinociception on Day 7 after minipump implantation” value [13] was “about 0.11±0.02 μg” and the “Potency relative to morphine on a molar basis” value ([13]; tail-flick) was “about 40 fold”. For the same compound, the “ED50 antinociception in opioid naïve animals” value ([13]; tail-flick) was 0.01 µg and the “Reversal time of hyperalgesia (significantly above vehicle)” value [9] was about 260 min.
With `NC(=O)[C@@H]1CC(=O)NCCCC[C@@H](NC(=O)[C@@H](N)Cc2ccc(O)cc2)C(=O)N[C@@H](Cc2c[nH]c3ccccc23)C(=O)N[C@@H](Cc2ccccc2)C(=O)N1` [Compound 5, Tyr-c[D-Lys-Trp-Phe-Asp]-NH2] the EC50 [1] was 0.22 nM, the “Conditioned place preference” value [10] was “no significant CPP” and the EC50 [2] was over 100000 nM. For the same compound, the IC50 [3] was 557 nM, the “Delta Antagonist efficacy” value [3] was 100 and the Ki [5] was 140 nM. For the same compound, the Ki [7] was 0.43 nM and the “Glial activation” value [8] was “activation was not significantly different from vehicle”.
In the case of `CN1CC[C@]23c4c5ccc(O)c4O[C@H]2[C@@H](O)C=C[C@H]3[C@H]1C5` [Morphine, morphine, reference compound], the “Conditioned place preference” value [10] is reported as “increase in the time spent on the drug side”, the Self-administration [14] is reported as “resulted in significant self-administration” and the “Motor impairment (rotorod)” value [11] is reported as “significantly above that of vehicle controls”. For the same compound, the “Impairment of spatial memory (latency to and distance from platform)” value [12] was “produced impairment of spatial memory”, the “Glial activation” value [8] was “produced significant glial activation” and the “ED50 antinociception on Day 7 after minipump implantation” value [13] was 16 ± 3.3 µg. For the same compound, the “ED50 antinociception in opioid naïve animals” value ([13]; tail-flick) was 0.253 µg, the “Dose required to fully (100%) reverse hyperalgesia” value ([9]; intrathecal) was “about 1.14 μg” and the “Reversal time of hyperalgesia (significantly above vehicle)” value [9] was “about 80 min”.
For `N[C@@H](Cc1ccc(O)cc1)C(=O)N[C@@H]1CCCCNC(=O)[C@H](Cc2ccccc2)NC(=O)[C@H](Cc2c[nH]c3ccccc23)NC1=O` [ck1, Tyr-c[D-Lys-Trp-Phe], reference compound] (HELM PEPTIDE1{Y.[dK].W.F}$PEPTIDE1,PEPTIDE1,2:R3-4:R2$$$V2.0; bridges inferred), the EC50 [1] was 0.21 nM, the EC50 [15] was 470 nM and the “Selectivity kappa/mu (activation)” value [15] was 2236. For the same compound, the EC50 [2] was 138 nM, the “Selectivity delta/mu (activation)” value [2] was 658 and the Ki [16] was 35 nM. The “Selectivity Kappa/Mu (binding)” value [16] was 111, the Ki [5] was 28 nM and the “Selectivity Delta/Mu (binding)” value [5] was 90. The Ki [7] was 0.32 nM.
With `N[C@@H](Cc1ccc(O)cc1)C(=O)N[C@@H]1CCCCNC(=O)[C@H](Cc2ccccc2)NC(=O)[C@H](Cc2ccccc2)NC1=O` [ck2, Tyr-c[D-Lys-Phe-Phe], reference compound] (HELM PEPTIDE1{Y.[dK].F.F}$PEPTIDE1,PEPTIDE1,2:R3-4:R2$$$V2.0; bridges inferred) the EC50 [1] was 0.15 nM, the EC50 [15] was 206 nM and the “Selectivity kappa/mu (activation)” value [15] was 1374. For the same compound, the EC50 [2] was 7 nM, the “Selectivity delta/mu (activation)” value [2] was 44 and the Ki [16] was 12 nM. The “Selectivity Kappa/Mu (binding)” value [16] was 33, the Ki [5] was 3 nM and the “Selectivity Delta/Mu (binding)” value [5] was 9. The Ki [7] was 0.36 nM.
For “Tyr-c[D-Lys-Trp-Phe-Glu]-Gly-NH2 [Compound 3]”, the “Delta Antagonist efficacy” value [3] was “full efficacy delta antagonism”.
